In data set [1] the target is T1, XIAP-BIR2 (Homo sapiens, UniProt P98170, C202A/C213G).
T1 construct: X-IAP BIR2 (amino acid residues 124-240 with mutations C202A and C213G); made in house; host or cells: Escherichia coli BL21 (DE3)
As to the kind of experiment: fluorescence polarization-based competition assay. The conditions noted are these: Table 3, positional scanning. The format is binding. As to the method: (§1) The apparent Kd values can be determined from the EC50 values.
(§2) The apparent Kd values were determined from the EC50 values. […] Samples were read after a 10-minute incubation.

Data set [2] has as its target T2, ML-IAP-BIR (Homo sapiens, UniProt Q96CA5).
T2 construct: made in house; host or cells: Escherichia coli BL21 (DE3)
T2 sequence (Q96CA5 63-179): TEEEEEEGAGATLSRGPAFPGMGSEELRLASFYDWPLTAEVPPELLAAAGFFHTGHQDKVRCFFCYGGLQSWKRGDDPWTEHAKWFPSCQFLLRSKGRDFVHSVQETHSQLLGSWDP
In words: fluorescence polarization-based competition assay. The format is binding. The method, then: as §1, §2
In general terms: In fluorescence polarisation assays a small probe gives low polarisation when free and higher when bound to something large.

Data set [3] has as its target XIAP-BIR3 (Homo sapiens, UniProt P98170). As to the kind of experiment: fluorescence polarization-based competition assay. The format is binding. More on the design: X-IAP BIR3 (amino acids residues 241-356); made in house; host or cells: Escherichia coli BL21 (DE3). The method, then: as §1, §2
Data set [4] concerns the molecule itself. As to the kind of experiment: crystal structure, self-association.

T1 sequence (P98170 124-240 C202A/C213G): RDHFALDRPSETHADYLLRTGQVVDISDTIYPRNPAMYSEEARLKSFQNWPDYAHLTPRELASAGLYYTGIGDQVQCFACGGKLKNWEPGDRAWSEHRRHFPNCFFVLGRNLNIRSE
Chain of XIAP-BIR3 (P98170 241-356): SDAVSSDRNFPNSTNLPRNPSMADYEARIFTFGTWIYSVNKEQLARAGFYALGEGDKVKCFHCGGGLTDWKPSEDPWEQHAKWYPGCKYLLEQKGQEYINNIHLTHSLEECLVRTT

As for `CC(C)[C@H](NC(=O)[C@H](C)N)C(=O)N1CCC[C@H]1C(=O)N[C@@H](CC1CCCC1)C(=O)N[C@@H](C)C(=O)N[C@@H](CCC(N)=O)C(=O)N[C@@H](CCCCN)C(=O)N[C@@H](CO)C(=O)N[C@@H](CCC(=O)O)C(=O)O` [AVPX7AQKSE], the Ki (as a rule, a measure of affinity in units of concentration, obtained from inhibition or displacement) in data set [1] was 229 µM; in data set [2], 7.9 µM.

For the molecule `CC(C)[C@H](NC(=O)[C@H](C)N)C(=O)N1CCC[C@H]1C(=O)N[C@@H](Cc1ccc(I)cc1)C(=O)N[C@@H](C)C(=O)N[C@@H](CCC(N)=O)C(=O)N[C@@H](CCCCN)C(=O)N[C@@H](CO)C(=O)N[C@@H](CCC(=O)O)C(=O)O` [AVPX10AQKSE], the Ki in data set [3] was 1 µM; in data set [1] it was 27.7 µM; in data set [2], 0.45 µM. In the case of `CC(C)[C@H](NC(=O)[C@H](C)N)C(=O)N1CCC[C@H]1C(=O)N[C@@H](Cc1ccc(S(=O)(=O)O)cc1)C(=O)N[C@@H](C)C(=O)N[C@@H](CCC(N)=O)C(=O)N[C@@H](CCCCN)C(=O)N[C@@H](CO)C(=O)N[C@@H](CCC(=O)O)C(=O)O` [AVPX2AQKSE], the Ki in data set [3] was determined as 8.5 µM.

B1: ML-IAP-BIR (other, human, UniProt Q96CA5 63-179, looked up)
chain: TEEEEEEGAGATLSRGPAFPGMGSEELRLASFYDWPLTAEVPPELLAAAGFFHTGHQDKVRCFFCYGGLQSWKRGDDPWTEHAKWFPSCQFLLRSKGRDFVHSVQETHSQLLGSWDP
notes: range 63-179; Expressed in E. coli BL21(DE3) from pET15b-MLIAPBIR; also called BIR domain of ML-IAP; not shown: possible N-terminal tag from the pET15b vector (purified on Ni-agarose)
Take B1: the binding result in data set [4] is listed as “binds”.
